{
  "source": "patent US12263140B1",
  "about": "“Methods of reducing the production of greenhouse gases from animals” (AGRICULTURAL SCIENCES LIMITED, priority 2023, dated 2025)",
  "key": {"cow rumen fluid [1]": {"tested_on": "cow rumen fluid", "test": "Fermentation of cow rumen fluid and dried grass (hay) in adjustable pressure fermenter", "assay_type": "cell-based", "design": "reduction of total gas volume compared to controls, average / reduction of total gas volume compared to controls, minimum / methane emission reduction / methane emission reduction, peak / CO2 volume produced by the fermentation, reduction compared to control samples: concentration or dose not given beside the values", "conditions": "for inhibition of vitamin K1 effects on reducing gas production by grass: Example 2", "source_text": "The aerial parts of the plants were harvested and allowed to dry for a number of days, the number depend on the weather. When air dry the material was steeped in 30% ethanol for one month or more (up to 3 months). It was important to keep the steep in the dark and to have the steep vessels filled and cover tightly to prevent the entry of air. […] Samples of rumen fluid were collected from either slaughtered cows immediately after slaughter. Samples of rumen fluid were collected from the rumen of these cows by cutting the rumen wall using a sterilised knife and allowing the fluid that exuded from the cut to be collected in a sterilised kidney bowl and held in a Dewar flask at body temperature. The rumen fluid was used within one hour of slaughter. It was passed through cheese cloth or similar to filter out the liquid portion for use in this and further trials. […] The rumen fluid was kept in the dark at a temperature of 36° C. at all times during transport and storage.\nThe collected rumen fluid samples were mixed with dried grass (hay) to form control samples. […] The prepared samples were then added to a trial fermenter and fermented over time to determine the total amount of gas produced during the fermentation time period along with the CO2 produced and the methane (CH4) production during the trial time period. The tubes were inspected periodically until fermentation stopped. The samples were analysed using gas chromatography (GC) with a permanent gas analysis column, in the order they were made.\nThe trial fermenter used is an adjustable pressure fermenter system consisting of two arms (one closed and one open) of a manometric setup fastened to a backplate (not shown).\nFermentation tube sizes varied from 50 ml to 250 ml. The closed arm was fixed to the supports and was closed at its top end by means of a removable stopper that has a small rubber or synthetic material septum embedded in the centre.\nSamples may be taken from the fermenter using a gas tight microlitre syringe. In use, according to one or more embodiments, the needle of the syringe is able to be inserted through the septum to take samples of fermenting fluid or gas for analysis by gas chromatography.\nThe arms were free to move up or down so that the pressure in the closed arm could be brought to atmospheric pressure, which occurred when the fluid levels in both arms were at equal heights.\nFor all early trials lab scale (50 ml) fermenters were used. Up to 20 fermenters could be used at the same time thus giving more reliable replications for statistical analysis. The tubes were held in a water bath held at a temperature of 36° C. with light excluded by a light-proof cover on the bath. The tubes were gently agitated during the fermentation.\nThe synthetic material was produced by the oxidation of 2-methylnaphthalene to 2-methyl-1,4-naphthoquinone with chromium trioxide in sulphuric and acetic acids. Trials were completed using the above trial fermenter and method using rumen fluid as described in Example 1.\nTo investigate this, fermentations were completed using the apparatus described in Example 1 and FIG. 1 using samples of fresh cow rumen fluid and dried grass, according to one or more embodiments."}, "sheep": {"tested_on": "sheep", "test": "Sheep exhalant breath trial after vitamin K1 drench (Douglas Bag type apparatus, Micro GC)", "assay_type": "in vivo", "protocol": "The sheep tested in this trial were ewe sheep. In this and all subsequent sheep trials, the sheep were yarded for 24 hours before the trial commenced, so their rumen was at least partially empty since they could not eat when yarded. In total, 60 sheep were tested in similar trials on two different sheep farms. The sheep in each trial were divided randomly into two equal groups, one group being an experimental group and the other group being a control group.\nThe sheep were driven into a race and each individual was drenched as they came to the end of the race. Sheep in the experimental group and control group were given a 50 ml drench prior to yard release and normal grazing and behaviour.\nThe sheep were let out to feed in a field and allowed to graze on grass freely. They were herded back at intervals and their exhalant breath captured. The breath exhalation of sheep was measured using the apparatus shown in FIG. 4, according to one or more embodiments, being an instrument based on Douglas Bag equipment for the sampling of exhalant breath from humans. Note that the air space in the tubes shown in FIG. 4 is exaggerated in the drawing, according to one or more embodiments. In reality, the air space may be kept to as small a volume as possible to avoid contamination of the exhalant breath with the dead air in the tubes. The gas impermeable bag used for exhalant breath capture must be as big as possible since methane is largely released periodically as a burp rather than in the exhalant breath.\nThe apparatus of FIG. 4 was designed specifically for use on sheep, according to one or more embodiments. On inspiration by the sheep, the valve opens and the sheep is able to breath in fresh air. On exhalation by the sheep, the valve closes and the exhaled air is directed in to the gas impermeable balloon. It is important that the balloon used is not expanded by the exhaled air, but is merely collected. Otherwise, back pressure may develop which has the potential to interfere with the breathing of the sheep. The valve could be either a flap valve or a table tennis ball. The latter was identified by the inventor as an ideal light weight valve.\nThe breath exhalant collected was analysed using an Agilent Micro GC with 2 dual columns: molecular sieve 5A and Plot-Q columns.\nThe six control sheep were drenched with 50 ml of 30% ethyl alcohol plus 50 ml water.\nIn this trial, the same trial was completed as in Example 3 above however, in this trial male sheep (rams) were trialed and the exhalant breath of the trial animals was tested over a time period of two days, samples taken on day 0, 1 and 2. Five rams were drenched with vitamin K1 and four rams were not drenched at all and used as controls."}, "cow pats (faeces)": {"tested_on": "cow pats (faeces)", "test": "Fermentation of cow pats from cows drenched with vitamin K1", "assay_type": "in vivo", "conditions": "FIG. 9; no vitamin K1 added to the cow pats", "protocol": "The cows in both fields were of the same breed and provenance.\nThe resulting cow pat samples were fermented using the apparatus described in Example 1 and FIG. 1 and gas produced collected and tested. Vitamin K1 was not added to the cow pats.\nAn qualitative test was also completed where the smell of the gases in the fermentation chambers were assessed at the end of fermentation."}, "[2]": {"tested_on": "rumen fluid from live fistulated cows", "test": "Fermentation of dried grass with rumen fluid from treated live fistulated cows, 12 hours (Example 11)", "assay_type": "in vivo, cow", "conditions": "36° C., dark, 1 g dried grass", "protocol": "In this trial, samples of rumen fluid from live fistulated cows were collected, passed through butter muslin (cheese cloth) and the fluid transferred to pre-warmed Thermos™ flasks.\nSix fermentation vessels had 1 g of dried grass added to each.\nThree vessels, the Experimentals, were filled with the rumen fluid from the treated cows. The other three vessels, the controls, were filled with rumen fluid from the untreated cows. All vessels were gently incubated at 36° C. in the dark for 12 hours."}, "cow rumen fluid [3]": {"tested_on": "cow rumen fluid", "test": "SIFT-MS analysis of gas from grass fermentations by cow rumen fluid", "assay_type": "cell-based", "source_text": "A SIFT-MS analyser was further used to confirm the above noted effects in terms of reductions in methane. A SIFT-MS device (see https://syft.com/sift-ms-technology/) is an advanced method for analysing mixtures of smaller volatile organic compounds."}, "[4]": {"conditions": "EFSA report 2013; cited from earlier work"}},
  "data": [
    {"compound": "CC1=C(C/C=C(\\C)CCC[C@H](C)CCC[C@H](C)CCCC(C)C)C(=O)c2ccccc2C1=O", "note": "[vitamin K1]", "values": [
      {"measurement": "CO2 volume produced by the fermentation, reduction compared to control samples", "setting": "cow rumen fluid [1]", "value": 83.4, "unit": "%"},
      {"measurement": "inhibition of vitamin K1 effects on reducing gas production by grass", "setting": "cow rumen fluid [1]; grass fermented immediately after harvest", "value": "total"},
      {"measurement": "inhibition of vitamin K1 effects on reducing gas production by grass", "setting": "cow rumen fluid [1]; older (3+ day old) grass", "value": "only a small inhibitory effect"},
      {"measurement": "gas volume produced", "setting": "cow rumen fluid [1]; Example 9, Trial 4, vitamin K1 and sulphide both added", "value": "consistent with and even slightly higher than control"},
      {"measurement": "methane emission reduction", "setting": "cow rumen fluid [1]; further trials", "value": 66.7, "unit": "%"},
      {"measurement": "reduction of total gas volume compared to controls, average", "setting": "cow rumen fluid [1]; further trials", "value": 80.2, "unit": "%"},
      {"measurement": "reduction of total gas volume compared to controls, maximum", "setting": "cow rumen fluid [1]; further trials", "value": 94.5, "unit": "%"},
      {"measurement": "reduction of total gas volume compared to controls, minimum", "setting": "cow rumen fluid [1]; further trials", "value": 75.9, "unit": "%"},
      {"measurement": "methane emission reduction, peak", "setting": "cow rumen fluid [1]; further trials, under specific conditions", "value": 91, "unit": "%"},
      {"measurement": "emitted methane in exhalant breath", "setting": "sheep; ewes drenched with tincture plus water, versus control sheep", "value": "significant reduction"},
      {"measurement": "ill effects after dosing", "setting": "sheep; ewes, drench", "value": "did not show any ill effects"},
      {"measurement": "percentage decrease in methane production compared to control sheep", "setting": "sheep; rams, drench, day 2", "value": 71, "unit": "%"},
      {"measurement": "amount of emitted gasses, carbon dioxide and methane", "setting": "sheep; treated versus control sheep", "value": "marked lessening"},
      {"measurement": "vitamin K1 effect on gas production carried through to faeces", "setting": "cow pats (faeces)", "value": "still active in the faeces"},
      {"measurement": "CO2, of controls", "setting": "[2]", "value": 39.35, "unit": "%"},
      {"measurement": "methane formation, of controls", "setting": "[2]", "value": 25.6, "unit": "%"},
      {"measurement": "total gas volume, of controls", "setting": "[2]", "value": 25.6, "unit": "%"},
      {"measurement": "reduction in methane compared with controls", "setting": "cow rumen fluid [3]", "value": 83.6, "unit": "%"},
      {"measurement": "reduction in total volume compared with controls", "setting": "cow rumen fluid [3]", "value": 56.8, "unit": "%"},
      {"measurement": "risk to the environment", "setting": "[4]", "value": "not a risk to the environment"}
    ]}
  ]
}
